For data set [1], the system named is Trypanosoma cruzi. The data set is described as follows: Antitrypanosomal activity against Trypanosoma cruzi (MHOM/CH/00/Tulahuen C2, lacZ) amastigotes infected in HFF-1 cells assessed as reduction in parasite growth incubated for 120 hrs by CPRG/Igepal substrate based photometric method. The data set is classed as functional, organism-based. The note with it: MHOM/CH/00/Tulahuen C2, HFF-1, 120 h.

A short description of data set [2]: Cytotoxicity against human HFF-1 cells assessed as reduction in cell viability incubated for 120 hrs by MTS assay. The data set is classed as cell-based.
In data set [3] the test system is Leishmania infantum. Kind of data set: Antileishmanial activity against Leishmania infantum MHOM/MA/67/ITMAP-263 infected in THP1 cells assessed as reduction in parasite growth incubated for 120 hrs by Giemsa staining based inverted microscopic analysis. The data set is classed as functional, organism-based. The note with it: MHOM/MA/67/ITMAP-263, THP-1, 120 h.

Data set [4] in a line: Cytotoxicity against human HepG2 cells assessed as reduction in cell viability incubated for 120 hrs by MTS assay. The data set is classed as cell-based.

`C=C(c1nc(-c2ccccc2)no1)C1(O)C(=O)N(Cc2ccccc2)c2ccccc21` (stereo not given): the values for the IC50 in data set [1] and in data set [3] were 10.6 µM and 5.65 µM, respectively. In addition, the 50% cytotoxic concentration (CC50) (in general, the concentration at which the toxic effect on the cells reaches its halfway point) at 120 h in data set [2] is over 64 µM; in data set [4] it was 19.2 µM.

With `C=C(c1nc(-c2ccccc2)no1)C(O)CCCC` (stereo not given), the figures for the IC50 in data set [1] and in data set [3] were 19.3 µM and 35.9 µM, respectively. Further, the CC50 at 120 h in data set [2] and in data set [4] was over 64 µM throughout.

Regarding `C=C(c1nc(-c2ccc(Cl)cc2)no1)C1(O)C(=O)N(CC)c2ccc(OC)cc21` (stereo not given), the half-maximal inhibitory concentration (IC50) (usually the point on the concentration scale where inhibition reaches its midpoint) stood at 28.4 µM in data set [1] and 5.09 µM in data set [3]. Besides, the CC50 at 120 h stood at 40.7 µM in data set [2] and 11.5 µM in data set [4].

Take `C=C(c1nc(-c2ccccc2)no1)C(O)c1ccccc1` (stereo not given): the results for the IC50 in data set [1] and in data set [3] were 8.2 µM and 9.81 µM, respectively. Moreover, the results for the CC50 at 120 h in data set [2] and in data set [4] were over 64 µM and 27.2 µM, respectively.

Regarding `C=C(c1nc(-c2ccc([N+](=O)[O-])cc2)no1)C(O)c1ccccc1` (stereo not given), the IC50 in data set [1] was over 64 µM; in data set [3] it was 37.5 µM. Besides, the CC50 at 120 h is over 64 µM in data set [2] and 27.1 µM in data set [4].

Regarding `CCN1C(=O)C2(OCC=C2c2nc(-c3ccccc3)no2)c2cccc(Br)c21` (stereo not given), the IC50 in data set [1] is 26.7 µM; in data set [3] it was 6.41 µM. The CC50 at 120 h in data set [2] stood at 34.2 µM; in data set [4], 58.4 µM.

For `C=C(c1nc(-c2ccccc2)no1)C(O)c1ccccn1` (stereo not given), the 50% inhibitory concentration (IC50) in data set [1] was over 100 µM; in data set [3], 17.9 µM. The CC50 at 120 h came out at 30.1 µM in data set [2] and 58.6 µM in data set [4].

Consider `C=C(c1nc(-c2ccccc2)no1)C(O)c1ccccc1Cl` (stereo not given), for which the half-inhibitory concentration (IC50) was determined as 25.7 µM in data set [1] and 17.6 µM in data set [3]. The 50% cytotoxic concentration (CC50) at 120 h in data set [2] is over 64 µM; in data set [4], 59.2 µM.

Turning to `C=C(c1nc(-c2ccc(OC)cc2)no1)C1(O)C(=O)N(CC)c2ccc(OC)cc21` (stereo not given), the concentration for half-maximal inhibition (IC50) in data set [1] is over 64 µM; in data set [3] it was 22 µM. Also, the CC50 at 120 h in data set [2] stood at 54.5 µM; in data set [4], 13.6 µM.

As to `CCCCCCCCCCCCCCCCOP(=O)([O-])OCC[N+](C)(C)C` [MILTEFOSINE], in data set [3], the IC50 is 2.3 µM.

As for `C=C(c1nc(-c2ccccc2)no1)C1(O)C(=O)N(CC)c2ccc(OC)cc21` (stereo not given), the half-maximal inhibitory concentration (IC50) in data set [1] is over 100 µM; in data set [3], 7.29 µM. For the same molecule, the CC50 at 120 h in data set [2] was over 64 µM; in data set [4] it was 13.5 µM.

Consider `C=C(c1nc(-c2ccccc2)no1)C(O)c1ccc(Cl)cc1` (stereo not given), for which the IC50 was determined as 57.5 µM in data set [1] and 6.92 µM in data set [3]. The cytotoxic concentration (CC50) at 120 h in data set [2] was over 64 µM; in data set [4], 10.1 µM.

Turning to `C=C(c1nc(-c2ccc(OC)cc2)no1)C1(O)C(=O)N(CC)c2ccccc21` (stereo not given), the half-maximal inhibitory concentration (IC50) in data set [1] was over 64 µM; in data set [3], 2.85 µM. Besides, the CC50 at 120 h was over 64 µM in data set [2] and 26.9 µM in data set [4].

For the molecule `COc1cccc2c1C(=O)c1c(O)c3c(c(O)c1C2=O)C[C@@](O)(C(=O)CO)C[C@@H]3O[C@H]1C[C@H](N)[C@H](O)[C@H](C)O1` [DOXORUBICIN], the figures for the cytotoxic concentration (CC50) at 120 h in data set [2] and in data set [4] were 0.53 µM and 0.77 µM, respectively.

As to `C=C(c1nc(-c2ccccc2)no1)C1(O)C(=O)N(CC)c2c(Cl)cccc21` (stereo not given), the IC50 in data set [1] is over 100 µM; in data set [3], 4.85 µM. Further, the figures for the CC50 at 120 h in data set [2] and in data set [4] were 62.1 µM and 13.5 µM, respectively.

In the case of `C=C(c1nc(-c2ccc([N+](=O)[O-])cc2)no1)C1(O)C(=O)N(CC)c2ccc(OC)cc21` (stereo not given), the IC50 in data set [1] was over 64 µM; in data set [3], 12 µM. In addition, the CC50 at 120 h turned out to be 43.6 µM in data set [2] and 5.83 µM in data set [4].

`C=C(c1nc(-c2ccccc2)no1)C1(O)C(=O)N(c2ccccc2)c2ccccc21` (stereo not given): the IC50 in data set [1] came to 16.2 µM; in data set [3], 8.17 µM. The 50% cytotoxic concentration (CC50) at 120 h in data set [2] was 27.9 µM; in data set [4], 14.1 µM.

For `C=C(c1nc(-c2ccc([N+](=O)[O-])cc2)no1)C1(O)C(=O)N(CC)c2ccccc21` (stereo not given), the IC50 in data set [3] amounted to 3.33 µM. Also, the cytotoxic concentration (CC50) at 120 h in data set [4] is 10.9 µM.

These data come from ChEMBL document CHEMBL4765358, “Discovery of highly potent and selective antiparasitic new oxadiazole and hydroxy-oxindole small molecule hybrids” (Eur J Med Chem, 2020).
